# According to patent US20090311344A1, “Dosing Regimen” (priority 2008, published 2009):
# Assay: Multiple dose study in cancer subjects: treatment-emergent (serious) adverse events
# Conditions: n of N = 12
# Description: 46 subjects with cancer receiving platinum-based therapies were enrolled into 3 cohorts (N=16 in Cohort 1, 14 in Cohort 2, and 16 in Cohort 3). The subjects received the TPO mimetic peptide compound or placebo within 2 hours prior to the platinum-based chemotherapy on Day 1 of the first 2 cycles with a 21-day interval between each cycle. In addition to the Day 1 administration, gemcitabine administration was permitted on Day 8 of each cycle. Other chemotherapy medications were limited to dosing on Day 1 of each cycle only. Subjects were followed up for a total of 4 cycles of chemotherapy. Chemotherapy regimen continued beyond the first 4 cycles as per standard of care therapy. In the first cohort, 12 subjects received 1.5 μg/kg the TPO mimetic peptide compound and 4 subjects received placebo. In the second cohort 10 subjects received 3.0 μg/kg the TPO mimetic peptide compound and 4 subjects received placebo. In the third cohort, 12 subjects received 2.25 μg/kg the TPO mimetic peptide compound and 4 subjects received placebo. […] Therefore, a third cohort at a lower dose (2.25 μg/kg) was added to collect additional safety, tolerability, PD, and PK data.
substance,measurement,setting,value
Methoxypolyethyleneglycol20000-propionyl-L-Isoleucyl-L-Glutamyl-Glycyl-L-Prolyl-L-Threonyl-L-Leucyl-L-Arginyl-L-Glutaminyl-L-2-Naphthylalanyl-L-Leucyl-L-Alanyl-L-Alanyl-L-Arginyl-Sarcosyl-Ne-(methoxypolyethyleneglycol20000-propionyl-L-Isoleucyl-L-Glutamyl-Glycyl-L-Prolyl-L-Threonyl-L-Leucyl-L-Arginyl-L-Glutaminyl-L-2-Naphthylalanyl-L-Leucyl-L-Alanyl-L-Alanyl-L-Arginyl-Sarcosyl-)-Lysinamide [TPO mimetic peptide compound],Adverse event: Abdominal pain,1.5 ug/kg,2
same,Adverse event: Acute myocardial infarction,1.5 ug/kg,1
same,Adverse event: Alanine aminotransferase increased,1.5 ug/kg,0
same,Adverse event: Alopecia,1.5 ug/kg,2
same,Adverse event: Anemia,1.5 ug/kg,7
same,Adverse event: Anorexia,1.5 ug/kg,5
same,Adverse event: Anxiety,1.5 ug/kg,1
same,Adverse event: Arthralgia,1.5 ug/kg,0
same,Adverse event: Aspartate aminotransferase increased,1.5 ug/kg,0
same,Adverse event: Atrial fibrillation,1.5 ug/kg,1
same,Adverse event: Azotaemia,1.5 ug/kg,0
same,Adverse event: Blood and lymphatic system disorders,1.5 ug/kg,8
same,Adverse event: Blood creatinine increased,1.5 ug/kg,1
same,Adverse event: C-reactive protein increased,1.5 ug/kg,0
same,Adverse event: Cancer pain,1.5 ug/kg,1
same,Adverse event: Cardiac disorders,1.5 ug/kg,3
same,Adverse event: Cardiac failure,1.5 ug/kg,1
same,Adverse event: Chills,1.5 ug/kg,0
same,Adverse event: Confusional state,1.5 ug/kg,0
same,Adverse event: Constipation,1.5 ug/kg,3
same,Adverse event: Cough,1.5 ug/kg,0
same,Adverse event: Dehydration,1.5 ug/kg,0
same,Adverse event: Dermatitis acneiform,1.5 ug/kg,0
same,Adverse event: Diabetes mellitus non-insulin-dependent,1.5 ug/kg,1
same,Adverse event: Diarrhea,1.5 ug/kg,2
same,Adverse event: Dizziness,1.5 ug/kg,0
same,Adverse event: Dry skin,1.5 ug/kg,0
same,Adverse event: Dyspepsia,1.5 ug/kg,0
same,Adverse event: Dyspnoea,1.5 ug/kg,1
same,Adverse event: Ear and labyrinth disorders,1.5 ug/kg,0
same,Adverse event: Epistaxis,1.5 ug/kg,0
same,Adverse event: Eructation,1.5 ug/kg,0
same,Adverse event: Fatigue,1.5 ug/kg,5
same,Adverse event: Febrile neutropenia,1.5 ug/kg,0
same,Adverse event: Folliculitis,1.5 ug/kg,1
same,Adverse event: Gastrointestinal disorders,1.5 ug/kg,7
same,Adverse event: General disorders and administration site conditions,1.5 ug/kg,7
same,Adverse event: General physical health deterioration,1.5 ug/kg,0
same,Adverse event: Haematocrit decreased,1.5 ug/kg,0
same,Adverse event: Headache,1.5 ug/kg,1
same,Adverse event: Hemorrhoids,1.5 ug/kg,1
same,Adverse event: Hepatobiliary disorders,1.5 ug/kg,0
same,Adverse event: Hiccups,1.5 ug/kg,1
same,Adverse event: Hyperbilirubinaemia,1.5 ug/kg,0
same,Adverse event: Hypersensitivity,1.5 ug/kg,0
same,Adverse event: Hypertension,1.5 ug/kg,0
same,Adverse event: Hypoalbuminaemia,1.5 ug/kg,0
same,Adverse event: Hypocalcaemia,1.5 ug/kg,1
same,Adverse event: Hypokalaemia,1.5 ug/kg,0
same,Adverse event: Hypomagnesaemia,1.5 ug/kg,0
same,Adverse event: Hyponatraemia,1.5 ug/kg,0
same,Adverse event: Hypophosphataemia,1.5 ug/kg,1
same,Adverse event: Immune system disorders,1.5 ug/kg,0
same,Adverse event: Insomnia,1.5 ug/kg,0
same,Adverse event: Investigations,1.5 ug/kg,3
same,Adverse event: Leukocytosis,1.5 ug/kg,0
same,Adverse event: Leukopenia,1.5 ug/kg,2
same,Adverse event: Lung abscess,1.5 ug/kg,1
same,Adverse event: Lymphopenia,1.5 ug/kg,2
same,Adverse event: Metabolism and nutrition disorders,1.5 ug/kg,5
same,Adverse event: Mucosal inflammation,1.5 ug/kg,0
same,Adverse event: Musculoskeletal and connective tissue disorders,1.5 ug/kg,0
same,Adverse event: Nausea,1.5 ug/kg,6
same,"Adverse event: Neoplasms benign, malignant and unspecified (incl cysts and polyps)",1.5 ug/kg,1
same,Adverse event: Nervous system disorders,1.5 ug/kg,3
same,Adverse event: Neuropathy peripheral,1.5 ug/kg,1
same,Adverse event: Neutropenia,1.5 ug/kg,3
same,Adverse event: Oedema,1.5 ug/kg,0
same,Adverse event: Oedema peripheral,1.5 ug/kg,1
same,Adverse event: Pain,1.5 ug/kg,3
same,Adverse event: Pain in extremity,1.5 ug/kg,0
same,Adverse event: Paraesthesia,1.5 ug/kg,0
same,Adverse event: Peripheral motor neuropathy,1.5 ug/kg,1
same,Adverse event: Peripheral sensory neuropathy,1.5 ug/kg,0
same,Adverse event: Platelet count decreased,1.5 ug/kg,1
same,Adverse event: Psychiatric disorders,1.5 ug/kg,1
same,Adverse event: Pyrexia,1.5 ug/kg,1
same,Adverse event: Rash,1.5 ug/kg,2
same,Adverse event: Renal and urinary disorders,1.5 ug/kg,0
same,Adverse event: Respiratory failure,1.5 ug/kg,1
same,"Adverse event: Respiratory, thoracic and mediastinal disorders",1.5 ug/kg,2
same,Adverse event: Skin and subcutaneous tissue disorders,1.5 ug/kg,4
same,Adverse event: Stomatitis,1.5 ug/kg,2
same,Adverse event: Tachycardia,1.5 ug/kg,2
same,Adverse event: Thrombocythaemia,1.5 ug/kg,1
same,Adverse event: Thrombocytopenia,1.5 ug/kg,3
same,Adverse event: Tinnitus,1.5 ug/kg,0
same,Adverse event: Vascular disorders,1.5 ug/kg,0
same,Adverse event: Vomiting,1.5 ug/kg,2
same,Adverse event: Weight decreased,1.5 ug/kg,1
same,Serious adverse event: Abdominal pain,1.5 ug/kg,1
same,Serious adverse event: Acute myocardial infarction,1.5 ug/kg,1
same,Serious adverse event: Anorexia,1.5 ug/kg,1
same,Serious adverse event: Atrial fibrillation,1.5 ug/kg,1
same,Serious adverse event: Blood and lymphatic system disorders,1.5 ug/kg,2
same,Serious adverse event: Blood creatinine increased,1.5 ug/kg,0
same,Serious adverse event: Cardiac disorders,1.5 ug/kg,2
same,Serious adverse event: Cardiac failure,1.5 ug/kg,1
same,Serious adverse event: Dehydration,1.5 ug/kg,0
same,Serious adverse event: Dyspnoea,1.5 ug/kg,0
same,Serious adverse event: Fatigue,1.5 ug/kg,1
same,Serious adverse event: Febrile neutropenia,1.5 ug/kg,0
same,Serious adverse event: Gastrointestinal disorders,1.5 ug/kg,2
same,Serious adverse event: General disorders and administration site conditions,1.5 ug/kg,2
same,Serious adverse event: Hyponatraemia,1.5 ug/kg,0
same,Serious adverse event: Investigations,1.5 ug/kg,0
same,Serious adverse event: Lung abscess,1.5 ug/kg,1
same,Serious adverse event: Metabolism and nutrition disorders,1.5 ug/kg,1
same,Serious adverse event: Nausea,1.5 ug/kg,1
same,Serious adverse event: Neutropenia,1.5 ug/kg,1
same,Serious adverse event: Pain,1.5 ug/kg,1
same,Serious adverse event: Pyrexia,1.5 ug/kg,1
same,Serious adverse event: Respiratory failure,1.5 ug/kg,1
same,"Serious adverse event: Respiratory, thoracic and mediastinal disorders",1.5 ug/kg,1
same,Serious adverse event: Thrombocythaemia,1.5 ug/kg,1
same,Serious adverse event: Thrombocytopenia,1.5 ug/kg,0
same,Serious adverse event: Vomiting,1.5 ug/kg,0
same,Total no. subjects WITH ADVERSE EVENTS,1.5 ug/kg,12
same,Total no. subjects WITH SERIOUS ADVERSE EVENTS,1.5 ug/kg,5
same,Adverse event: Abdominal pain,2.25 ug/kg,1
same,Adverse event: Acute myocardial infarction,2.25 ug/kg,0
same,Adverse event: Alanine aminotransferase increased,2.25 ug/kg,0
same,Adverse event: Alopecia,2.25 ug/kg,3
same,Adverse event: Anemia,2.25 ug/kg,2
same,Adverse event: Anorexia,2.25 ug/kg,0
same,Adverse event: Anxiety,2.25 ug/kg,0
same,Adverse event: Arthralgia,2.25 ug/kg,0
same,Adverse event: Aspartate aminotransferase increased,2.25 ug/kg,0
same,Adverse event: Atrial fibrillation,2.25 ug/kg,0
same,Adverse event: Azotaemia,2.25 ug/kg,1
same,Adverse event: Blood and lymphatic system disorders,2.25 ug/kg,6
same,Adverse event: Blood creatinine increased,2.25 ug/kg,1
same,Adverse event: C-reactive protein increased,2.25 ug/kg,0
same,Adverse event: Cancer pain,2.25 ug/kg,0
same,Adverse event: Cardiac disorders,2.25 ug/kg,0
same,Adverse event: Cardiac failure,2.25 ug/kg,0
same,Adverse event: Chills,2.25 ug/kg,1
same,Adverse event: Confusional state,2.25 ug/kg,1
same,Adverse event: Constipation,2.25 ug/kg,2
same,Adverse event: Cough,2.25 ug/kg,2
same,Adverse event: Dehydration,2.25 ug/kg,1
same,Adverse event: Dermatitis acneiform,2.25 ug/kg,0
same,Adverse event: Diabetes mellitus non-insulin-dependent,2.25 ug/kg,0
same,Adverse event: Diarrhea,2.25 ug/kg,1
same,Adverse event: Dizziness,2.25 ug/kg,2
same,Adverse event: Dry skin,2.25 ug/kg,0
same,Adverse event: Dyspepsia,2.25 ug/kg,0
same,Adverse event: Dyspnoea,2.25 ug/kg,1
same,Adverse event: Ear and labyrinth disorders,2.25 ug/kg,0
same,Adverse event: Epistaxis,2.25 ug/kg,0
same,Adverse event: Eructation,2.25 ug/kg,1
same,Adverse event: Fatigue,2.25 ug/kg,1
same,Adverse event: Febrile neutropenia,2.25 ug/kg,1
same,Adverse event: Folliculitis,2.25 ug/kg,0
same,Adverse event: Gastrointestinal disorders,2.25 ug/kg,7
same,Adverse event: General disorders and administration site conditions,2.25 ug/kg,3
same,Adverse event: General physical health deterioration,2.25 ug/kg,1
same,Adverse event: Haematocrit decreased,2.25 ug/kg,1
same,Adverse event: Headache,2.25 ug/kg,1
same,Adverse event: Hemorrhoids,2.25 ug/kg,0
same,Adverse event: Hepatobiliary disorders,2.25 ug/kg,1
same,Adverse event: Hiccups,2.25 ug/kg,1
same,Adverse event: Hyperbilirubinaemia,2.25 ug/kg,1
same,Adverse event: Hypersensitivity,2.25 ug/kg,0
same,Adverse event: Hypertension,2.25 ug/kg,2
same,Adverse event: Hypoalbuminaemia,2.25 ug/kg,1
same,Adverse event: Hypocalcaemia,2.25 ug/kg,0
same,Adverse event: Hypokalaemia,2.25 ug/kg,1
same,Adverse event: Hypomagnesaemia,2.25 ug/kg,1
same,Adverse event: Hyponatraemia,2.25 ug/kg,2
same,Adverse event: Hypophosphataemia,2.25 ug/kg,0
same,Adverse event: Immune system disorders,2.25 ug/kg,0
same,Adverse event: Insomnia,2.25 ug/kg,1
same,Adverse event: Investigations,2.25 ug/kg,2
same,Adverse event: Leukocytosis,2.25 ug/kg,0
same,Adverse event: Leukopenia,2.25 ug/kg,3
same,Adverse event: Lung abscess,2.25 ug/kg,0
same,Adverse event: Lymphopenia,2.25 ug/kg,0
same,Adverse event: Metabolism and nutrition disorders,2.25 ug/kg,2
same,Adverse event: Mucosal inflammation,2.25 ug/kg,0
